For one data set, the system named is DC-3F/ADX. As to the kind of experiment: Tumor cell growth inhibition in vitro. Type of data set: cell-based, hamster. The conditions noted are these: DC-3F/ADX. The protocol: The fresh medium containing each drug was replenished every 7-14 days. […] In each case ,the drug-exposed cells were resuspended in fresh media for a minimum of 4 days before the experiments for the cell-growth inhibition was carried out.
The cells were cultured at an initial density of 2-5×10^4 cells per ml. They were maintained in a 5% CO2-humidified atmosphere at 37° C. in RPMI mediun 1640 (GIBCO/BRL) containing penicillin (100 units/ml), streptomycin (100 μg/ml) (GIBCO/BRL), and 5% heat-inactivated fetal bovine serum. For solid tumor cells growing in a monolayer (such as MCF-7/Adr), cytotoxicitiy of the drug was determined in 96-well microtiter plates by using the sulforhodamine B method as described by Skehan et al (23) for measuring the cellular protein content. For cells that were grown in suspension (such as CCRF-CEM and its sublines), cytotoxicitiy was measured by using the 2,-3-bis(2-methoxy-4-nitro-5-sulfophenyl)-5carboxanilide)-2H terazodium hydroxide (XTT)-microculture tetrazonium method (24) in duplicate in 96-well microtiter plates. For both methods, the absorbance of each well was measured with a microplate reader (EL-340, Bio-Tek, Burlington, Vt.). Each run entailed six or seven concentrations of the tested drugs. Dose-effect relationship data were analyzed with the median-effect plot (25) by using a previously described computer program (26).

Data set [1] concerns HL-60 promyelocytic leukemia xenograft. As to the kind of experiment: Human tumor xenograft in nude mice. It is filed as in vivo. The conditions noted are these: HL-60; dEpoB 30 mg/kg, Taxol 20 mg/kg, Q2Dx5, 6-hr i.v. infusion. An outline of the steps:
(§1)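 Male athymic nu/nu mice bearing s.c. flank tumours from 5×10^6 cells or 30-50 mg tissue; dosing began at 35-200 mm^3 as 6 hr tail-vein i.v. infusion every other day ×5 unless otherwise indicated. Caliper tumour volume, body weight and lethality recorded every other day; 3-5 mice per group.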
In general terms: A xenograft is tissue or cells of one species grown in another, often human tumour cells in immunodeficient mice.

The test system of data set [2] is HT-29 colon adenocarcinoma xenograft. As to the kind of experiment: Human tumor xenograft in nude mice. It is filed as in vivo. The conditions noted are these: HT-29; dEpoB 30 mg/kg, Taxol 15 mg/kg, Q2Dx6, 6-hr i.v. infusion. Put shortly:
as §1

In data set [3] the test system is MCF-7/Adr mammary xenograft. As to the kind of experiment: Human tumor xenograft in nude mice. It is filed as in vivo. The conditions noted are these: dEpoB 30 mg/kg, Taxol 24 mg/kg, Q2Dx5, 6-hr i.v. infusion.
Data set [4] deals with HCT-116 colon carcinoma xenograft. As to the kind of experiment: Human tumor xenograft in nude mice. Type of data set: in vivo. The conditions noted are these: HCT-116; dEpoB 30 mg/kg, Taxol 20 mg/kg, Q2Dx51x3, 6-hr i.v. infusion. The source says: Therapeutic efficacy of cancer chemotherapeutic agents varies with various factors including the tumor models used and the dosage of drug and schedules and routes of administration. […] In the present studies, we intended to compare the therapeutic effects of drugs near their maximal tolerated doses by measuring the extent of body-weight decreases and/or lethality.
Depending on the tumor type, treatment started on day 10 to day 21 when subcutaneous tumor size reached 35-200 mm^3, except otherwise indicated. Tumor size and body-weight were recorded every other day (Q2D) and, for humane reasons, the animals were sacrificed when tumor size reached ≧10% of body-weight. Each group, including untreated control, consisted of 3-5 animals unless otherwise indicated.
Athymic nude mice bearing the nu/nu gene were used for all human tumor xenografts. Outbred, Swiss-background mice were obtained from Charles River Laboratories. Male mice 8 weeks or older weighing 22 g and up were used for most experiments. The drug was administered via the tail vein for 6 hr.-i.v. infusion. Each individual mouse was confined in a perforated Falcon polypropylene tube restrainer for drug administration. Tumor volume was assessed by measuring length×width×height (or width) using a caliper. The programmable Harvard PHD2000 syringe pump (Harvard Apparatus) with multi-track was used for i.v. infusion. […] All animal studies were conducted in accordance with the guidelines of the National Institutes of Health “Guide for the Care and Use of Animals” and the protocol approved by the Memorial Sloan-Kettering Cancer Center's Institutional Animal Care and Use Committee. In keeping with the policy of this committee for the humane treatment of tumor-bearing animals, mice were euthanized when tumors reached ≧10% of their total body weight.
Human tumor cells (5×10^6) or tumor tissue (30-50 mg) were implanted s.c. flank in nu/nu mice (Charles River Laboratories, Wilmington, Mass.). When tumor grew to a specified size, treatment was started by every-other day×5 with 6 hr i.v.-infusion, unless otherwise indicated. Tumor volume was measured with calipers in three dimensions (length×width×height or width). Body-weight changes and lethality were monitored every other day.

Data set [5] relates to K562 chronic myelocytic leukemia xenograft. As to the kind of experiment: Human tumor xenograft in nude mice. Type of data set: in vivo. The conditions noted are these: K562; dEpoB 30 mg/kg, Taxol 20 mg/kg, Q2Dx5, 6-hr i.v. infusion. Put shortly: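 Subcutaneous K562 xenografts (1×10^7 cells) in male athymic nu/nu mice; 6 mg/kg C-15-aza-EpoB by 6 h i.v. tail-vein infusion on days 20–30 every other day, then 30 mg/kg dEpoF likewise from day 42. Controls received Cremophor-ethanol (1:1); tumor volume measured by caliper every other day, mean mm^3±S.E.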

A further data set deals with UL-3-B/Taxol. The conditions noted are these: UL-3-B/Taxol.
Another data set is described as follows: physchem. The conditions noted are these: water.

pIC50: −log10 of the molar value. In brackets after ≈: the same amount, converted by molar mass.

Turning to `CC(=O)O[C@H]1C(=O)[C@@]2(C)[C@H]([C@H](OC(=O)c3ccccc3)[C@]3(O)C[C@H](OC(=O)[C@H](O)[C@@H](NC(=O)c4ccccc4)c4ccccc4)C(C)=C1C3(C)C)[C@]1(OC(C)=O)CO[C@@H]1C[C@@H]2O` [Taxol, paclitaxel, reference compound], the pIC50 (commonly the negative decadic logarithm of the IC50, by convention in mol/L) in the data set on DC-3F/ADX was 6.23; in the data set with DC-3F/ADX (listed as Paclitaxel), 4.69; in the data set with UL-3-B/Taxol, 7.87. Besides, the “Tumor Disappearance” value was 4/4 in data set [1]; 0/4 in data set [2]; 0/4 in data set [3]; 3/3 in data set [4]; 0/6 in data set [5]. Further, the “Lowest Average Tumor Size (T/C)” value in data set [5] is listed as 0.18. For the same compound, the solubility (in general, the concentration that dissolves in the medium under given conditions) in the data set “physchem” is around 600 µg/mL (≈ 703 µM).

These data come from US6867305B2, “Synthesis of epothilones, intermediates thereto and analogues thereof” (Sloan-Kettering Institute for Cancer Research, priority 1996, dated 2005).
